Calls of active or inactive are those of the source.

One assay has as its target fMet-Leu-Phe receptor (Homo sapiens, UniProt P21462). In words: FPR ligands, dose response (AID 519). Type of assay: functional.
Assay [1] addresses Peroxisome proliferator-activated receptor gamma/Nuclear receptor coactivator 2 (Homo sapiens, UniProt P37231). Type of assay: functional.
The target in assay [2] is Peroxisome proliferator-activated receptor gamma/Nuclear receptor coactivator 1 (Homo sapiens, UniProt P37231). Type of assay: functional.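 Further: agonist potency as compounds enhance coactivator SRC-1 recruitment to PPARgamma.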
Assay [3] deals with Peroxisome proliferator-activated receptor gamma/Nuclear receptor coactivator 3 (Homo sapiens, UniProt P37231). Type of assay: functional.
The target in another assay is Cytochrome P450 2C19 (Homo sapiens, UniProt P33261). In words: Cytochrome panel assay with activity outcomes. Panel member name: p450-cyp2c19 Compounds with AC50 equal or less than 10 uM are considered active. To be noted: read-out: AC50. Type of assay: functional.
A short description of assay [4]: A549 cell cytotoxicity, dose response, cytotoxicity control, plate reader, cherry-pick, antagonist series (AID 743412). Type of assay: functional, cell-based.
The nature of assay [5]: HepG2 cell cytotoxicity, dose response, cytotoxicity control, plate reader, cherry-pick, antagonist series (AID 743416). Type of assay: functional, cell-based.
Assay [6] is described as follows: LGR2 antagonists, dose response, cell-based, HEK293, CRE-luciferase reporter, cherry pick, set 2 (AID 743343).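 Further: transfected cells were stimulated with diluted bursicon conditioned medium after compound addition.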 Type of assay: functional. In general terms: In a reporter assay the amount or activity of a reporter protein is the signal.
A short description of assay [7]: MC4R antagonists, dose response, counter-screen for LGR2 antagonist project, cell-based, plate reader, cherry pick (AID 743444).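 Further: transfected HEK 293 cells stimulated with alpha-MSH peptide; potency of inhibitors of the alpha-MSH evoked signal.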 Type of assay: functional.
Assay [8] deals with T1, Oxysterols receptor LXR-beta (Homo sapiens, UniProt P55055).
T1 sequence (P55055 whole entry): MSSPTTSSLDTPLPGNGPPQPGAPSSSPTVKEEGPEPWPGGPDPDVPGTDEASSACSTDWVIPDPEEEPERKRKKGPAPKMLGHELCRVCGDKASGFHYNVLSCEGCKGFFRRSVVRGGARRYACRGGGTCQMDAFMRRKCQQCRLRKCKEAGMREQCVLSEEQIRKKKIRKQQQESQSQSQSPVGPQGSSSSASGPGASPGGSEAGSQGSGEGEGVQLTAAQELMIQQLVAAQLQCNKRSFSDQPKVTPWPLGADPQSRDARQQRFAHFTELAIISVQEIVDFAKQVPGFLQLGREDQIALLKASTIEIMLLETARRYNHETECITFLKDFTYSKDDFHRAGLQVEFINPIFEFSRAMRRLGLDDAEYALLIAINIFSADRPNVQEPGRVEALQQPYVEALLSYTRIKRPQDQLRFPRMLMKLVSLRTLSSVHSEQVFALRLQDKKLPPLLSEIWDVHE
Type of assay: functional, cell-based.

The target of a further assay is Cytochrome P450 2D6 (Homo sapiens, UniProt P10635).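 Further: CYP2D6 member of a cytochrome P450 panel assay.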
Assay [9] addresses T2, Methionyl-tRNA synthetase, putative (Trypanosoma brucei brucei, UniProt Q38C91).
T2 sequence (Q38C91 whole entry): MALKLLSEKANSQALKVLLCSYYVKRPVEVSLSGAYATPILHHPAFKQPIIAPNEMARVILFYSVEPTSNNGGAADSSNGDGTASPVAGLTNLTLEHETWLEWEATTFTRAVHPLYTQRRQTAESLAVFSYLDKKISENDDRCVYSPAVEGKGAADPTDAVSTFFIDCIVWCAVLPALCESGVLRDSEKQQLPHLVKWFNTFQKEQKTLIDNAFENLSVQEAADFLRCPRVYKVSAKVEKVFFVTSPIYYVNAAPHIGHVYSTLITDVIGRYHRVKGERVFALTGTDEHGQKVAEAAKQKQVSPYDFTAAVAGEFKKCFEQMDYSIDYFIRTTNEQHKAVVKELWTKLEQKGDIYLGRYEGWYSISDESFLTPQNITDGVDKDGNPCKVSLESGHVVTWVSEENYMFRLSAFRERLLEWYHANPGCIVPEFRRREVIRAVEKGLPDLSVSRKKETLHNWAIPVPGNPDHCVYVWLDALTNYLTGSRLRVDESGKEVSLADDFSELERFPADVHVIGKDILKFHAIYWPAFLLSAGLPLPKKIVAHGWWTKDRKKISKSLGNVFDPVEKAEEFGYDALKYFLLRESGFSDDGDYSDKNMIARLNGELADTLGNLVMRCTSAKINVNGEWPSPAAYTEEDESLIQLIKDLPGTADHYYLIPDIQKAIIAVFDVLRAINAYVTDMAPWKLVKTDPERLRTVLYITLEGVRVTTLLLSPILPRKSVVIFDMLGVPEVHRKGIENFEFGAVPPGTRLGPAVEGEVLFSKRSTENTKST
Type of assay: functional, Trypanosoma brucei brucei strain 927/4 GUTat10.1.

The nature of assay [10]: Counterscreen for inhibitors of Trypanosoma brucei methionyl tRNA synthetase (MetRS): Luminescence-based cell-based high throughput dose response assay to identify compounds that are cytotoxic to Jurkat human T lymphocyte cells. Type of assay: functional.
For assay [11], the target named is T2, Methionyl-tRNA synthetase, putative. Type of assay: functional, Trypanosoma brucei brucei strain 927/4 GUTat10.1. This is another data set of the same source.
Assay [12] in a line: Late stage counterscreen for inhibitors of Trypanosoma brucei methionyl tRNA synthetase (MetRS): Luminescence-based cell-based high throughput dose response assay to identify compounds that are cytotoxic to Jurkat human T lymphocyte cells. Type of assay: functional. (A counterscreen serves to expose hits that act by an unwanted route or on another target.)
Assay [13] in a line: Late stage assay provider results from the probe development effort to identify selective inhibitors of heat shock protein 90 (HSP90): Absorbance-based cell proliferation assay in SKBR3 cells. Type of assay: functional. The conditions noted are these: SK-BR-3.
Assay [14] in a line: Late stage assay provider results from the probe development effort to identify selective inhibitors of heat shock protein 90 (HSP90): Absorbance-based cell proliferation assay in MCF7 cells. Type of assay: functional.
Assay [15] addresses Disintegrin and metalloproteinase domain-containing protein 17 (Homo sapiens, UniProt P78536). Put plainly: exosite inhibitors of ADAM17, dose response, biochemical (AID 743260).
Assay [16] is described as follows: ADAM10 protease inhibitors, dose response, selectivity assay for ADAM17 exosite inhibitor project, biochemical, FRET peptide substrate, recombinant human ADAM10 (AID 743259).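 Further: ADAM10 enzyme cleaving a FRET peptide substrate.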
The target of assay [17] is T1, Oxysterols receptor LXR-beta. Type of assay: functional, cell-based. The source holds these as a separate data set.
The subject of the next assay is HEK293. In words: HEK293T cell cytotoxicity, dose response, cytotoxicity control, ATP luminescence, cherry-pick samples (AID 687005).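 Further: cells exposed to compound for 48 hours.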 Type of assay: functional, cell-based. To be noted: Homo sapiens.
Assay [18] in a line: HEK293 Cytotoxicity Assay Measured in Cell-Based System Using Plate Reader - 7071-01_Inhibitor_Dose_CherryPick_Activity_Set2. Type of assay: functional.
The target of assay [19] is NAD-dependent protein deacylase sirtuin-5, mitochondrial (Homo sapiens, UniProt Q9NXA8). Put plainly: SIRT5 desuccinylase inhibitors, dose response, biochemical, fluorescence imaging, cherry-pick, set 5 (AID 720591).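 Further: desuccinylation of succinyl peptide AMC substrate read as fluorescence after trypsin release; potency of inhibitors that lower fluorescence and may act on trypsin instead.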
The next assay relates to HeLa. Put plainly: HeLa cell cytotoxicity, dose response, cytotoxicity control, ATP luminescence, cherry-pick samples (AID 687004). Type of assay: functional, cell-based. To be noted: Homo sapiens.

Sequence of Disintegrin and metalloproteinase domain-containing protein 17 (P78536 whole entry, the tested form may be a part): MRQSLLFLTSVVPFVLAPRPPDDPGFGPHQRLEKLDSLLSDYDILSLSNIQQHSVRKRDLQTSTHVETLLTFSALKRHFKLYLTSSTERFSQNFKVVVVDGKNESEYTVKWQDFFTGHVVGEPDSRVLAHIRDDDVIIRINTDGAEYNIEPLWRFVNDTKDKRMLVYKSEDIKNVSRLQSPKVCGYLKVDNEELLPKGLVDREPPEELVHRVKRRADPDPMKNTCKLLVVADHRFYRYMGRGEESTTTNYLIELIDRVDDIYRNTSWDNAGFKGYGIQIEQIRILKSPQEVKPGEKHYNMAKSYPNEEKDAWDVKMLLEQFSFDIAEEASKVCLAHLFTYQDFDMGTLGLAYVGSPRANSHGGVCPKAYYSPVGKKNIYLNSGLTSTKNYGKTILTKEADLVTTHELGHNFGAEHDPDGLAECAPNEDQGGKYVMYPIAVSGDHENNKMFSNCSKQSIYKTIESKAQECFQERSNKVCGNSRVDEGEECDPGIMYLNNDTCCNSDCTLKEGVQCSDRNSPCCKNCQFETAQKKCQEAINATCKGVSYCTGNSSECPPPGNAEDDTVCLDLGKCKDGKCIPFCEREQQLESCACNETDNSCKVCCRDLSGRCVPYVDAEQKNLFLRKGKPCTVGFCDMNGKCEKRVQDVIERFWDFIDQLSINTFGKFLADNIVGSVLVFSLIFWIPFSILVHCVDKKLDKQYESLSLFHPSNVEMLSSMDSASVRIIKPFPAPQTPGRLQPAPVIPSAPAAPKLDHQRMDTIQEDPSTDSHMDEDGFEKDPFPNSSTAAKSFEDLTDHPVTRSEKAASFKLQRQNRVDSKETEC
Sequence of fMet-Leu-Phe receptor (P21462 whole entry): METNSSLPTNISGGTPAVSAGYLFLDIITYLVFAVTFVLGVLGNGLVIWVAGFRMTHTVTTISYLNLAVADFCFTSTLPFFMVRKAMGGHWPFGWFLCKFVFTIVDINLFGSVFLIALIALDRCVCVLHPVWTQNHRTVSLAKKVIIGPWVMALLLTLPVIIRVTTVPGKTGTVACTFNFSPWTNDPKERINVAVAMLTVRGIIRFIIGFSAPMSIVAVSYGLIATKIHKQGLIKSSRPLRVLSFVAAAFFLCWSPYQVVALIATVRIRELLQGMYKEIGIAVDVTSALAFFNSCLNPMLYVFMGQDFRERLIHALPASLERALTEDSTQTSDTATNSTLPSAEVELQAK
Sequence of Cytochrome P450 2D6 (P10635 whole entry): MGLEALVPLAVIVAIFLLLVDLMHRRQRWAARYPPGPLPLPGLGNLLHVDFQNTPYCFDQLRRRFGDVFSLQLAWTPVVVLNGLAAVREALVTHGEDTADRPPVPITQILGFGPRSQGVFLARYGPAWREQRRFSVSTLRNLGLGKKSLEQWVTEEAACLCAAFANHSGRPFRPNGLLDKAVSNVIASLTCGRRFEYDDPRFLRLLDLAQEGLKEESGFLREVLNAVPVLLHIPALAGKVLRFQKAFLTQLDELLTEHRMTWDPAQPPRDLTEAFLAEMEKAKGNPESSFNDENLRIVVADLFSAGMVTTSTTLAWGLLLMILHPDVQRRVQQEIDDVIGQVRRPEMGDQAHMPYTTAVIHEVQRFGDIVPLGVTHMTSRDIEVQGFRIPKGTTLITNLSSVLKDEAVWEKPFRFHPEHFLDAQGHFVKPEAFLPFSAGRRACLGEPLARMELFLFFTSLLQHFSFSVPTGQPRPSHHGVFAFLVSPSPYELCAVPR
Sequence of Peroxisome proliferator-activated receptor gamma/Nuclear receptor coactivator 2 (P37231 whole entry): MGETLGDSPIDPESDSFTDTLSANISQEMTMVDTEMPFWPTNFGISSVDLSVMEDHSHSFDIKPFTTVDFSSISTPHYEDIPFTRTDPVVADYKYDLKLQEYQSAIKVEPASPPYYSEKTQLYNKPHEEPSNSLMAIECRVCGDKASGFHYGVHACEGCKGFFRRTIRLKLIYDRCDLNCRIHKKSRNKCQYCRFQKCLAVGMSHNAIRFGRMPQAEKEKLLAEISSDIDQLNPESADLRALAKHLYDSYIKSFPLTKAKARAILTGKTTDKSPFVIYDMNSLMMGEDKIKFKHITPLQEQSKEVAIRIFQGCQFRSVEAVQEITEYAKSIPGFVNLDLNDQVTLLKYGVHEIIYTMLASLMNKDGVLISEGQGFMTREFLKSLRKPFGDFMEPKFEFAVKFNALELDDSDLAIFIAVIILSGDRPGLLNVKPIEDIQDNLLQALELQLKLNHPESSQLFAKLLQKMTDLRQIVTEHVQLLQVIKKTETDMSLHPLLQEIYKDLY
Sequence of Peroxisome proliferator-activated receptor gamma/Nuclear receptor coactivator 2 (Q15596 whole entry, further chain): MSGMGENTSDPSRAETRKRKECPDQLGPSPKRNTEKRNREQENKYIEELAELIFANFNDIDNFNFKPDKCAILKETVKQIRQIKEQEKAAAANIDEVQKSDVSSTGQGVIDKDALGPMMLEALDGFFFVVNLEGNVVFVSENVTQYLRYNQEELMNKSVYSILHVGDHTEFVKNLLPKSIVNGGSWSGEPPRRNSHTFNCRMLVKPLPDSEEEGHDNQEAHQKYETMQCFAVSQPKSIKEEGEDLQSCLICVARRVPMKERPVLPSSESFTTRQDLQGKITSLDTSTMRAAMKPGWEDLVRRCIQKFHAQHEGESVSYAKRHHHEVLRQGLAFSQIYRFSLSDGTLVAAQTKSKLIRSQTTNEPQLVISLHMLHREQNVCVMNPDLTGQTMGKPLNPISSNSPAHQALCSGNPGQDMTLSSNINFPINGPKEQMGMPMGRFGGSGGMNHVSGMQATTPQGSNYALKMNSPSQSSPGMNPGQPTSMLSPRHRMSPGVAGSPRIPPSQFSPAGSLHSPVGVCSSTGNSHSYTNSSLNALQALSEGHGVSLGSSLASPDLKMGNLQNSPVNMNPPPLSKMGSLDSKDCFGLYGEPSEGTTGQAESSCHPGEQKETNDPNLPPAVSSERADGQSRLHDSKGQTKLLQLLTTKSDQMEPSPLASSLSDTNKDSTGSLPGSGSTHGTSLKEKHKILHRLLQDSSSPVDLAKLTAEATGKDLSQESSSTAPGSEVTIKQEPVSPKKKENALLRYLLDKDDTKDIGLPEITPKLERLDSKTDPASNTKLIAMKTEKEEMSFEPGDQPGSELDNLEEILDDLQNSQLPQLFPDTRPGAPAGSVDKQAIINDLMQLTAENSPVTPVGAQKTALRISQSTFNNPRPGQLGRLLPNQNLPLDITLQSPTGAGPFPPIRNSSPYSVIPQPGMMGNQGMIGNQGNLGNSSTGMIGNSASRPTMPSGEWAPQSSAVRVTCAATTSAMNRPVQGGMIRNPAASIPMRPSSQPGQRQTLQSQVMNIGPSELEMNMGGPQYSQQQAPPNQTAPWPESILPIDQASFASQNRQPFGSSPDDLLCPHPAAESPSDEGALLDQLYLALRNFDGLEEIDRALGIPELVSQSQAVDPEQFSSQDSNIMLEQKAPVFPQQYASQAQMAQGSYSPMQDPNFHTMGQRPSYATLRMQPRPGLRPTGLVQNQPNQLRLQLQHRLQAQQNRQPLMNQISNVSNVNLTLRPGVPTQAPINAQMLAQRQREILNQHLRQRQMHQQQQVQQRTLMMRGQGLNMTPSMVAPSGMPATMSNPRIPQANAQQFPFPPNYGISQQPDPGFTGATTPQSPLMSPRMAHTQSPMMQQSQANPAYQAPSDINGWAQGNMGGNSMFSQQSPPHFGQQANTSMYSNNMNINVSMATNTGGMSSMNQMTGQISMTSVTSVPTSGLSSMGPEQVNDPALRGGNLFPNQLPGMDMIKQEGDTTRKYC
Sequence of NAD-dependent protein deacylase sirtuin-5, mitochondrial (Q9NXA8 whole entry): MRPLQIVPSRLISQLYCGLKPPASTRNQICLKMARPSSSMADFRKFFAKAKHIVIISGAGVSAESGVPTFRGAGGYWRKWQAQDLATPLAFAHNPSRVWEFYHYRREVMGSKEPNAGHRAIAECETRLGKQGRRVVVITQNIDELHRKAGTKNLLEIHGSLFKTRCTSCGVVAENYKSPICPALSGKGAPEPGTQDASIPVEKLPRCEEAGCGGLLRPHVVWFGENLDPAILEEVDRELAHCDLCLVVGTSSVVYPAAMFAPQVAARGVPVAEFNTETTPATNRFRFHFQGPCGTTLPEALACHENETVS
Sequence of Cytochrome P450 2C19 (P33261 whole entry): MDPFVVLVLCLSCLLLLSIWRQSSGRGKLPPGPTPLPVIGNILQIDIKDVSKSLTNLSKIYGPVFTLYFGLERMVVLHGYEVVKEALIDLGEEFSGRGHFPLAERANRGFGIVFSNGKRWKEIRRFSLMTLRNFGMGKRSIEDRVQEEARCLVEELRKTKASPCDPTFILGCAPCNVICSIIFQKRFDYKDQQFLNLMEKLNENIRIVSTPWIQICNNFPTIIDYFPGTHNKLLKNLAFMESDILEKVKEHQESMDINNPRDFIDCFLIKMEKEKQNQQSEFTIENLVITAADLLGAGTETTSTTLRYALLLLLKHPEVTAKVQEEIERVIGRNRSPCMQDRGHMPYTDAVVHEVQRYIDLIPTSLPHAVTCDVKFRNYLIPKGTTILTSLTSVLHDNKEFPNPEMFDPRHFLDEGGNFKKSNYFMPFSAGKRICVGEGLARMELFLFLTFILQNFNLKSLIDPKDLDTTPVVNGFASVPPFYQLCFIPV

For `OCc1nc2ccccc2n1CC(O)Cn1ccc2ccccc21` (stereo unspecified), the Ki – broadly, the dissociation constant of the complex between target and ligand, obtained from inhibition or displacement – on fMet-Leu-Phe receptor was > 66.7 µM (inactive).

In the case of `Cc1ccc(NC(=O)c2sc3ccccc3c2Cl)nc1`, the 50% effective concentration (EC50) (in general, the concentration needed to bring the measured effect to its halfway point) in assay [1] is 41.5 µM (not active); in assay [2], 53.2 µM (not active); in [3], 52 µM (not active); in [8], > 67.5 µM (inactive); in the assay “cells”, > 67.5 µM (inactive). Besides, the AC50 (commonly the concentration giving half of the maximal activity seen) was 7.94 µM (inconclusive) at Cytochrome P450 2C19; 50.8 µM (active) in [4]; > 52 µM (inactive) in assay [5]; 2.52 µM (active) in [6]; 3.36 µM (active) in [7]; 3.16 µM (inconclusive) at Cytochrome P450 2D6.

Consider `CCOC(=O)N1CCC(Nc2c(Nc3ccc(F)cc3)c(=O)c2=O)CC1`, for which the concentration for half-maximal inhibition (IC50) (usually the concentration needed to halve the response being measured) in assay [9] was 7.98 µM (active); in assay [10], 83.3 µM (inactive); in assay [11], 4.36 µM (active); in [12], > 83.3 µM (inactive).

Consider `O=C(Nc1ccc(F)cc1)c1coc(=O)c(Br)c1`, for which the IC50 was 8.8 µM (active) in assay [13] and 3.4 µM (active) in assay [14].

As for `C[C@H](c1ccccc1)N1C[C@H](COCc2ccccc2)Oc2cc(N3CC[C@@H](O)C3)ccc2S1(=O)=O`, the IC50 in assay [15] is > 69.5 µM (inactive); in [16], 16 µM (inactive).

For `O=C(NCc1nc2ccccc2[nH]1)C1=C[C@H](c2ccc(Br)cc2)C[C@H](OCCCCO)O1`, in assay [12], the IC50 was 66.7 µM (inactive).

`CC1CCC(NC(=O)c2cccn2C)CC1` (stereo unspecified): the EC50 in assay [17] was > 67.6 µM (inactive).

Regarding `C[C@@H]1CCCCO[C@@H](CN(C)S(=O)(=O)c2ccc(F)cc2)[C@@H](C)CN([C@@H](C)CO)C(=O)c2cc(NS(=O)(=O)c3ccc(F)cc3)ccc2O1`, the AC50 (with HEK293; in assay [18]) was 17.1 µM (active) in each case.

For the compound `O=C(SCC(O)C(O)CS)c1cccs1` (stereo unspecified), the IC50 is 3.76 µM (active) in [15] and 40.5 µM (inactive) in assay [16].

For the compound `COC(=O)[C@]12CCCCC=C1N(Cc1ccc(Cl)cc1Cl)C(=O)[C@H](CC(=O)NCc1cccc(C(F)(F)F)c1)C2`, in assay [19], the AC50 is > 30 µM (inactive).

With `CCS(=O)(=O)Nc1cc(-c2nc3cccnc3s2)ccc1C`, in assay [17], the EC50 is > 67.5 µM (inactive).

`Cc1ccc(N=C(S)Nc2ccc(Cl)c(Cl)c2)c(OC(F)F)c1`: the AC50 with HeLa was 29.9 µM (active); in the assay with HEK293, 26.6 µM (active); in assay [18], 26.6 µM (active).

Take `COCCCN1C(=O)C(O)=C(C(=O)c2ccco2)C1c1ccc(Br)cc1` (stereo unspecified): the inhibition constant Ki on fMet-Leu-Phe receptor is 14.7 µM (active).

`NNc1nc(-c2ccccc2)nc2sc3c(c12)CCCC3`: the EC50 (in assay [8]; in the assay “cells”) was > 67.5 µM (inactive) throughout.

On to `O=C1OC(=O)/C(=C\Nc2cnc3ccccc3c2)C=C1Br`, for which the figures for the IC50 in assay [13] and in assay [14] were 17.4 µM (inactive) and 12.1 µM (inactive), respectively.

The values above are taken from ChEMBL document CHEMBL1201862, “PubChem BioAssay data set” (2004).
